Test results: patent publication US20070281028A1, “Drug Delivery of a Cox Inhibitor from Embolic Agents” (Biocompatibles Uk Limited, priority 2004, published 2007)
“And” between values parts separate entries of the source, which are not always exact repeats. Identical values can stand only once. Blank lines part the entries; values can stand above or below the molecule they belong to.

What was measured:
[1] = Release (elution) of drug from loaded microspheres in vitro; type: physicochemical; conditions: for salicylic acid loaded that was released: 100 ml water, majority within the first 15 minutes
[2] = Loading (uptake) of drug into microspheres, from depletion of loading solution (UV/HPLC); type: physicochemical; conditions: for ketorolac loaded in microspheres: low AMPS 500-710 μm, loaded from water; for dose loaded per ml of hydrated microspheres: 5 ml of 100 mg/ml drug in ethanol added to 0.5 ml microspheres; for ketoprofen loaded/ml spheres, maximum loading: at 24 hours
Procedure: A solution of 100 mg/ml flurbiprofen (Sigma) in ethanol was prepared. […] Low AMPS and high AMPS microspheres of size 500-710 μm were used and drug uptake monitored by UV. The samples were agitated on a roller mixer. Aliquots of supernatant were taken at 10, 20, 30, 60 mins and then at 2 hr, out to 24 hr. Uptake was calculated from the flurbiprofen remaining in solution. […] Microspheres of the present invention of each size loaded with 200 mg/ml flurbiprofen were placed in 250 ml water at 37° C.
The samples were agitated on a roller mnixer.
5 ml of the solution was added to 0.5 ml of low AMPS microspheres, of size 500-710 μm, and uptake monitored by HPLC. The samples were agitated on a roller mixer. Aliquots of supernatant were taken at 5, 10, 20 40 and 60 mins and then 24 hr.
The samples were agitated on a roller mixer. Samples of the supernatant were taken at 10, 20, 40, 60 mins and 24 hrs. […] Elution experiments were carried out on these microspheres (table 1). Microspheres were washed to determine quick burst in various media as in table 1. Then samples were placed in 10 ml solvent and absorbance read after 10 mins, a further 20 ml added and absorbance read after 10 mins, this was repeated up to 90 mls and elution was monitored up to 24 hrs (table 1).
Once prepared, the absorbances of the solutions were read by UV at 263 nm and dilutions were made to produce a standard curve. […] The vials were placed on a roller mixer at room temperature for the entire experiment. At a predetermined time points (0, 10, 20, 30 and 60 min) 100 μl was removed, diluted as necessary (1/200) and read at 263 nm. From the readings and the standard curve, the concentration of the solution at each time point was calculated. The amount of drug loaded onto the beads was measured by the depletion of the drug in solution when extracted with the beads. From the data the mg drug loaded per 1 ml of hydrated beads were calculated and the graph plotted.
Five samples of 1 ml of hydrated beads Low AMPS 700 to 1100 μm were used. For each sample, 1 ml of beads in phosphate buffered saline (PBS), measured with a 10 ml—glass cylinder, was transferred to a glass container and all the PBS was carefully removed with a glass Pasteur pipette. […] Once prepared, the absorbances of the solution and dilutions were read by UV at 263 nm to produce a standard curve. […] The vials were placed on the roller mixer at room temperature for the entire experiment. At predetermined time points (0, 20, 40, 60 and 120 min) 100 μl was removed, diluted as necessary (1/200) and read at 263 nm. From the readings and the standard curve, the concentration of the solution at each time point was calculated. The amount of drug loaded onto the beads was measured by the depletion of the drug in solution. From the data the mg drug loaded per 1 ml of beads were calculated and the graph plotted (FIG. 12).
Six samples of 1 ml of beads (700-1100 μm) were used. For each sample, 1 ml of beads in phosphate buffered saline (PBS), measured with a 10 ml glass cylinder, was transferred to a glass container and all the PBS was carefully removed with a glass Pasteur pipette. […] Once prepared, the absorbances of the solution and dilutions of the aqueous and of the alcoholic solutions were read by UV at 263 nm to produce standard curves. […] The vial was placed on the roller mixer at room temperature for the entire experiment. Once loaded, the remaining solution was removed, measured in a graduated measurement cylinder and read at 263 nm.

[3] = Plasma levels of ibuprofen after embolisation, intra-arterial or intravenous administration; type: in vivo; conditions: sheep, after intra-arterial administration (IA) of 50 mg solution in both left and right artery
HIF-2 alpha = conditions: COX-2 independent; cited from earlier work
COX-2/COX-1 = conditions: 0 = equal potency; above 0 more selective to COX-1, below 0 more selective to COX-2; cited from earlier work
HIF-1 alpha = conditions: COX-2 independent; cited from earlier work
[4] = system: colorectal cancer cell line; conditions: cited from earlier work
[5] = 10 ml water, 37° C., released in the first 5 minutes
[6] = high AMPS microspheres 500-710 μm
[7] = in less than 30 minutes, low and high AMPS microspheres, 100 mg/ml in ethanol
[8] = low AMPS microspheres 500-710 μm

SMILES: CC(C)Cc1ccc(C(C)C(=O)O)cc1 (stereo not shown) [Ibuprofen]
Elution rate (range) ([1]; low AMPS microspheres, elution up to 90 mls, up to 24 hrs, over experiments of table 1): 20%-43%
Elution rate, average in most experiments ([1]; low AMPS microspheres, up to 24 hrs): 25%
Eluted Drug ([1]; quick burst/wash out solvent 50% ethanol, elution solvent 50% ethanol, up to 24 hrs): 53 mg
Eluted Drug ([1]; quick burst/wash out solvent 100% ethanol, elution solvent 0.9% Saline (pH 12), up to 24 hrs): 60 mg
Eluted Drug ([1]; quick burst/wash out solvent 100% ethanol, elution solvent 50% ethanol, up to 24 hrs): 47 mg
quick burst ([1]; wash of loaded low AMPS microspheres in various media): approximately 15%
Eluted Drug ([1]; wash out and elution solvent 0.9% Saline (pH 12), 2 ml loading solution, up to 24 hrs, listed as Ibuprofen Free Acid): 47 mg and 83 mg and 57 mg
Eluted Drug ([1]; wash out and elution solvent 0.9% Saline (pH 12), 3 ml loading solution, up to 24 hrs): 77 mg
Cmax [3]: 32000 ng/mL
HIF-2 alpha gene expression (HIF-2 alpha): inhibited
Loading mg/ml Bead ([2]; 2 ml loading solution (250 mg/ml in ethanol) to 1 ml low AMPS microspheres, listed as Ibuprofen Free Acid): 177.3 mg/ml Bead and 185.24 mg/ml Bead and 142.82 mg/ml Bead and 187.08 mg/ml Bead and 207.7 mg/ml Bead and 235.53 mg/ml Bead
Loading mg/ml Bead ([2]; 3 ml loading solution (250 mg/ml in ethanol) to 1 ml low AMPS microspheres): 323.7 mg/ml Bead
time at which optimum loading is obtained ([2]; loaded from ethanol, low AMPS beads 700 to 1100 μm, contraction then expels drug solution): around 20 mins
doses loaded per ml of hydrated microspheres ([2]; low AMPS microspheres, 250 mg/ml in ethanol, range over series of experiments): 142-335 mg per ml of hydrated microspheres

SMILES: O=C(O)c1ccccc1O [salicylic acid]
salicylic acid loaded that was released ([1]; high AMPS microspheres, 37° C.): approximately 30%
salicylic acid loaded that was released ([1]; low AMPS microspheres, 37° C.): approximately 25%
further release after transferral into fresh water ([1]; transfer to 10 ml fresh water after 60 hours, measured 60 hours more): did not bring about any further release
maximum salicylic acid taken up per ml of microspheres ([2]; low or high AMPS 500-710 μm, 5 mg/ml in ethanol, after 3-4 hours): 3-4 mg salicylic acid/ml of microspheres
salicylic acid taken up per ml of microspheres ([2]; low or high AMPS 500-710 μm, 5 mg/ml in ethanol, after 24 hours): 2-3 mg/ml of microspheres

SMILES: O=C(c1ccccc1)c1ccc2n1CCC2C(=O)O (stereo not shown) [Ketorolac]
released ([1]; high AMPS loaded microspheres (so in the source), first 5 minutes, 250 ml water at 37° C.): 43%
further slow release ([1]; high AMPS loaded microspheres (so in the source), further in the next 24 hrs): 4%
released ([1]; high AMPS loaded microspheres (so in the source), in 1 hrs, 250 ml water at 37° C.): 90%
released ([1]; low loaded microspheres, first 5 minutes, 250 ml water at 37° C.): 75%
further release ([1]; low loaded microspheres, further in next 24 hrs): 5%
released ([1]; low loaded microspheres, in 1 hr, 250 ml water at 37° C.): 90%
HIF-2 alpha gene expression (HIF-2 alpha): inhibited
ketorolac loaded in microspheres ([2]; high loaded microspheres): 27 mg/mL
drug solution located in the microspheres ([2]; in less than 10 minutes, low AMPS microspheres 500-710 μm, 50 mg/ml and 10 mg/ml in water): 99%
ketorolac loaded in microspheres ([2]; low loaded microspheres): 13 mg/mL

SMILES: CC(C(=O)O)c1cccc(Oc2ccccc2)c1 (stereo not shown) [Fenoprofen]
Log [IC80 ratio WHMA COX-2/COX-1)] (COX-2/COX-1): 0

SMILES: Cc1cc(CC(=O)O)n(C)c1C(=O)c1ccc(Cl)cc1 [Zomepirac]
Log [IC80 ratio WHMA COX-2/COX-1)] (COX-2/COX-1): 0

SMILES: O=C(O)c1cccnc1Nc1cccc(C(F)(F)F)c1 [Niflumic Acid]
Log [IC80 ratio WHMA COX-2/COX-1)] (COX-2/COX-1): 0

SMILES: CS(=O)(=O)Nc1ccc([N+](=O)[O-])cc1OC1CCCCC1 [NS398]
expression of pro-angiogenic factors, including VEGF [4]: diminished
HIF-2 alpha gene expression (HIF-2 alpha): inhibition

Further lines, with some results ahead:

drug released per ml of microspheres [1, 5]: 6-9 mg/ml of microspheres
loaded drug released from the microspheres [1, 5]: 17-25%
further release after transfer to fresh water ([1]; transfer to 10 ml fresh water after 17 hours, measured 7 hours more): did not bring about any further release
naproxen taken up per ml of spheres ([2]; low or high AMPS microspheres 500-710 μm, 30 mg/ml in ethanol, over 168 hours): 35-40 mg naproxen/ml of spheres
SMILES: COc1ccc2cc([C@H](C)C(=O)O)ccc2c1 [Naproxen]

time at which maximum loading is reached ([2]; loaded from ethanol 250 mg/ml, low AMPS beads 700-1100 μm, loading decreases afterwards): about 20 minutes
SMILES: CC(C)Cc1ccc(C(C)C(=O)[O-])cc1.[Na+] (stereo not shown) [ibuprofen sodium salt]
loading levels, drug per ml of hydrated beads ([2]; range over six microsphere products, 2 ml of 100 mg/ml in water to 1 ml microspheres, 100 minute period): 67 to 142 mg of drug per ml of hydrated beads

further release ([1]; further in 48 hrs, microspheres loaded with 26 and 30 mg/ml, 250 ml water at 37° C.): 35%
release ([1]; in first 5 minutes, microspheres loaded with 26 and 30 mg/ml, 250 ml water at 37° C.): 18-26%
dose loaded per ml of hydrated microspheres [2, 6]: 30 mg per ml of hydrated microsph
drug solution located in the microspheres [2, 7]: 99%
dose loaded per ml of hydrated microspheres [2, 8]: 26 mg per ml of hydrated microsph
SMILES: O=C(O)Cc1ccccc1Nc1c(Cl)cccc1Cl [Diclofenac]
HIF-1 alpha gene expression (HIF-1 alpha): inhibited
HIF-2 alpha gene expression (HIF-2 alpha): inhibited

further release ([1]; further in 2 days, microspheres loaded with 200 mg/ml, 250 ml water at 37° C.): 5%
release ([1]; in first 10 minutes, microspheres loaded with 200 mg/ml, 250 ml water at 37° C.): 30%
dose loaded per ml of hydrated microspheres [2, 6]: 197 mg per ml of hydrated microsph
drug solution located in the microspheres [2, 7]: 99%
dose loaded per ml of hydrated microspheres [2, 8]: 195 mg per ml of hydrated microsph
SMILES: CC(C(=O)O)c1ccc(-c2ccccc2)c(F)c1 (stereo not shown) [Flurbiprofen]

time of maximum loading ([2]; low and high AMPS microspheres, 30 mg/ml in ethanol, monitored over 72 hours): 24 h
SMILES: CC(C(=O)O)c1cccc(C(=O)c2ccccc2)c1 (stereo not shown) [Ketoprofen]
ketoprofen loaded/ml spheres, maximum loading ([2]; high AMPS microspheres 500-710 μm, 30 mg/ml in ethanol): approximately 10 mg ketoprofen loaded/ml spheres
ketoprofen loaded/ml spheres, maximum loading ([2]; low AMPS microspheres 500-710 μm, 30 mg/ml in ethanol): approximately 12 mg ketoprofen loaded/ml spheres
